# In patent publication US8192962B2, “Processes for detecting toxic substances” (Daikin Industries, Ltd., priority 2001, dated 2012):
# Tested on: Genes belonging to other category
# Test: DNA chip mRNA expression in yeast, genes belonging to other category (Table 9)
# Format: cell-based, Saccharomyces cerevisiae S288C
# Method in brief: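 Untreated cultures served as reference for log-phase S288C yeast given a growth-inhibiting, non-lethal toxicant dose for 2 h at 25° C. in YPD. Gene expression was measured on a whole-genome DNA chip from Cy3/Cy5-labeled cDNA.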
smiles,measurement,setting,value
"N#Cc1c(Cl)c(Cl)c(Cl)c(C#N)c1Cl [(9), 2,4,5,6-tetrachloro-1,3-benzenedicarbonitrile]",The level of expressed mRNA in the presence of chemical substance/The level of expressed mRNA in the absence of chemical substance,yeast gene YER009W,0.7
same,The level of expressed mRNA in the presence of chemical substance/The level of expressed mRNA in the absence of chemical substance,yeast gene YER012W,6.7
same,The level of expressed mRNA in the presence of chemical substance/The level of expressed mRNA in the absence of chemical substance,yeast gene YER029C,1.4
same,The level of expressed mRNA in the presence of chemical substance/The level of expressed mRNA in the absence of chemical substance,yeast gene YER039C,1.2
same,The level of expressed mRNA in the presence of chemical substance/The level of expressed mRNA in the absence of chemical substance,yeast gene YER094C,2.3
same,The level of expressed mRNA in the presence of chemical substance/The level of expressed mRNA in the absence of chemical substance,yeast gene YER098W,2.8
same,The level of expressed mRNA in the presence of chemical substance/The level of expressed mRNA in the absence of chemical substance,yeast gene YER107C,0.4
same,The level of expressed mRNA in the presence of chemical substance/The level of expressed mRNA in the absence of chemical substance,yeast gene YER130C,0.5
same,The level of expressed mRNA in the presence of chemical substance/The level of expressed mRNA in the absence of chemical substance,yeast gene YER136W,1.4
same,The level of expressed mRNA in the presence of chemical substance/The level of expressed mRNA in the absence of chemical substance,yeast gene YER177W,1.8
same,The level of expressed mRNA in the presence of chemical substance/The level of expressed mRNA in the absence of chemical substance,yeast gene YER184C,4.6
same,The level of expressed mRNA in the presence of chemical substance/The level of expressed mRNA in the absence of chemical substance,yeast gene YFL022C,0.5
same,The level of expressed mRNA in the presence of chemical substance/The level of expressed mRNA in the absence of chemical substance,yeast gene YFL028C,2.7
same,The level of expressed mRNA in the presence of chemical substance/The level of expressed mRNA in the absence of chemical substance,yeast gene YFL038C,2.1
same,The level of expressed mRNA in the presence of chemical substance/The level of expressed mRNA in the absence of chemical substance,yeast gene YFL043C,2.2
same,The level of expressed mRNA in the presence of chemical substance/The level of expressed mRNA in the absence of chemical substance,yeast gene YFR050C,3.1
same,The level of expressed mRNA in the presence of chemical substance/The level of expressed mRNA in the absence of chemical substance,yeast gene YGL011C,2.0
same,The level of expressed mRNA in the presence of chemical substance/The level of expressed mRNA in the absence of chemical substance,yeast gene YGL048C,2.4
same,The level of expressed mRNA in the presence of chemical substance/The level of expressed mRNA in the absence of chemical substance,yeast gene YGL158W,−0.4
same,The level of expressed mRNA in the presence of chemical substance/The level of expressed mRNA in the absence of chemical substance,yeast gene YGL208W,1.4
same,The level of expressed mRNA in the presence of chemical substance/The level of expressed mRNA in the absence of chemical substance,yeast gene YGL229C,1.8
same,The level of expressed mRNA in the presence of chemical substance/The level of expressed mRNA in the absence of chemical substance,yeast gene YGR120C,0.3
same,The level of expressed mRNA in the presence of chemical substance/The level of expressed mRNA in the absence of chemical substance,yeast gene YGR131W,1.9
same,The level of expressed mRNA in the presence of chemical substance/The level of expressed mRNA in the absence of chemical substance,yeast gene YGR136W,2.1
same,The level of expressed mRNA in the presence of chemical substance/The level of expressed mRNA in the absence of chemical substance,yeast gene YGR189C,0.3
same,The level of expressed mRNA in the presence of chemical substance/The level of expressed mRNA in the absence of chemical substance,yeast gene YGR213C,7.5
same,The level of expressed mRNA in the presence of chemical substance/The level of expressed mRNA in the absence of chemical substance,yeast gene YGR257C,1.5
same,The level of expressed mRNA in the presence of chemical substance/The level of expressed mRNA in the absence of chemical substance,yeast gene YHL024W,2.1
same,The level of expressed mRNA in the presence of chemical substance/The level of expressed mRNA in the absence of chemical substance,yeast gene YHR004C,1.1
same,The level of expressed mRNA in the presence of chemical substance/The level of expressed mRNA in the absence of chemical substance,yeast gene YHR012W,4.9
same,The level of expressed mRNA in the presence of chemical substance/The level of expressed mRNA in the absence of chemical substance,yeast gene YHR071W,1.0
same,The level of expressed mRNA in the presence of chemical substance/The level of expressed mRNA in the absence of chemical substance,yeast gene YHR109W,2.4
same,The level of expressed mRNA in the presence of chemical substance/The level of expressed mRNA in the absence of chemical substance,yeast gene YHR124W,3.0
same,The level of expressed mRNA in the presence of chemical substance/The level of expressed mRNA in the absence of chemical substance,yeast gene YHR139C,107.2
same,The level of expressed mRNA in the presence of chemical substance/The level of expressed mRNA in the absence of chemical substance,yeast gene YHR142W,0.4
same,The level of expressed mRNA in the presence of chemical substance/The level of expressed mRNA in the absence of chemical substance,yeast gene YHR160C,2.3
same,The level of expressed mRNA in the presence of chemical substance/The level of expressed mRNA in the absence of chemical substance,yeast gene YHR163W,1.4
same,The level of expressed mRNA in the presence of chemical substance/The level of expressed mRNA in the absence of chemical substance,yeast gene YHR171W,2.1
same,The level of expressed mRNA in the presence of chemical substance/The level of expressed mRNA in the absence of chemical substance,yeast gene YIL123W,0.1
same,The level of expressed mRNA in the presence of chemical substance/The level of expressed mRNA in the absence of chemical substance,yeast gene YIL140W,0.7
same,The level of expressed mRNA in the presence of chemical substance/The level of expressed mRNA in the absence of chemical substance,yeast gene YIR018W,4.0
same,The level of expressed mRNA in the presence of chemical substance/The level of expressed mRNA in the absence of chemical substance,yeast gene YJL073W,1.7
same,The level of expressed mRNA in the presence of chemical substance/The level of expressed mRNA in the absence of chemical substance,yeast gene YJL089W,1.6
same,The level of expressed mRNA in the presence of chemical substance/The level of expressed mRNA in the absence of chemical substance,yeast gene YJL113W,1.3
same,The level of expressed mRNA in the presence of chemical substance/The level of expressed mRNA in the absence of chemical substance,yeast gene YJL116C,2.4
same,The level of expressed mRNA in the presence of chemical substance/The level of expressed mRNA in the absence of chemical substance,yeast gene YJL146W,1.0
same,The level of expressed mRNA in the presence of chemical substance/The level of expressed mRNA in the absence of chemical substance,yeast gene YJR004C,0.3
same,The level of expressed mRNA in the presence of chemical substance/The level of expressed mRNA in the absence of chemical substance,yeast gene YJR036C,1.4
same,The level of expressed mRNA in the presence of chemical substance/The level of expressed mRNA in the absence of chemical substance,yeast gene YJR058C,1.9
same,The level of expressed mRNA in the presence of chemical substance/The level of expressed mRNA in the absence of chemical substance,yeast gene YJR086W,1.4
